In patent US20080271210A1, “Oryza Sativa Lectin-Like Receptor Kinase 1 (Oslrk1), a Gene Involved in Plant Development” (Temasek Life Sciences Laboratory National University of …, priority 2004, published 2008):

Legend:
Oslrk1 gene [1] = experiment: Northern-blot of Oslrk1 transcript in WT seedlings treated with sugars; type: in vivo, Oryza sativa; settings: sugars 175 mM, 48 hours, Mannitol as osmotic control
Experimental: Lectins are known as carbohydrate-binding proteins that specifically recognize diverse sugar structures (Vijayan and Chandra, 1999). […] Five different sugars: glucose (Glu), sucrose (Suc), fructose (Fm), Gal and Man were used for this study along with Mannitol as an osmotic control (Methods). Northern-blot hybridizations were carried out on the total RNA isolated from treated seedlings.
RNA Isolation and Northern-blot Analysis. RNA was isolated from different organs of rice plant at different developmental stages (roots of 10-14 days old seedlings and 2 months old plants, 10-14 days old seedlings, young and mature leaves, panicles at the flowering stage and calli) using a RNeasy Plant mini kit (Qiagen,). […] For the control of RNA quantity, DIG-probe corresponding to rice Actin1 gene was synthesized using the following primers: […]
The RT-PCRs and Northern blots were repeated at least thrice and similar results were obtained. The quantification of the intensity of the hybridization signals was performed using Quantity ONE 4.5.0 software in Gel doc XR documentation system (Bio-Rad Laboratories, Inc., USA). The level of actual expression was calculated as a ratio of intensity of specific signal (Oslrk1 3′UTR probe) to the intensity of signal of positive control (rice Act1). […]

Oslrk5 = experiment: RT-PCR of Oslrks in treated 2 week-old seedlings; type: in vivo, Oryza sativa; settings: treated vs control
Experimental: (§1) RT-PCRs were carried out on RNA samples isolated from 2 week-old seedlings treated with various sugar (FIG. 13), hormone (FIG. 14), and abiotic stresses (FIG. 15) using primers designated to either 3′ or 5′ Untranslated Regions (UTRs) of the 15 Oslrks found in Table 2. For each Oslrk two lanes in the gel are found, the first lane is the control and the second one treatment samples.
(§2) Table 3 provides a summary of all the above referenced data on the Oslrks, showing the RT-PCR results of various treatments, including sugar, hormone and abiotic stress and northern blot results on various tissues of rice plant grown in normal conditions, and the ESTs, or cDNAs availability in the database. In the table, “I” represents induced expression and “R” represents repressed expression.

Oslrk4 = experiment: RT-PCR of Oslrks in treated 2 week-old seedlings; type: in vivo, Oryza sativa; settings: treated vs control
Experimental: as §1, §2

Oslrk11 = experiment: RT-PCR of Oslrks in treated 2 week-old seedlings; type: in vivo, Oryza sativa; settings: treated vs control
Experimental: as §1, §2

Oslrk8 = experiment: RT-PCR of Oslrks in treated 2 week-old seedlings; type: in vivo, Oryza sativa; settings: treated vs control
Experimental: as §1, §2

Oslrk2 = experiment: RT-PCR of Oslrks in treated 2 week-old seedlings; type: in vivo, Oryza sativa; settings: treated vs control
Experimental: as §1, §2

Oslrk9 = experiment: RT-PCR of Oslrks in treated 2 week-old seedlings; type: in vivo, Oryza sativa; settings: treated vs control
Experimental: as §1, §2

Oslrk14 = experiment: RT-PCR of Oslrks in treated 2 week-old seedlings; type: in vivo, Oryza sativa; settings: treated vs control
Experimental: as §1, §2

Oslrk10 = experiment: RT-PCR of Oslrks in treated 2 week-old seedlings; type: in vivo, Oryza sativa; settings: treated vs control
Experimental: as §1, §2

[2] = tested on: Oslrk1 mutant seeds and seedlings; experiment: Germination and growth of Oslrk1 mutant seeds in galactose/mannose containing media; type: in vivo, Oryza sativa
Text: (§3) The altered expression of the Oslrk1 by different sugars described above led us to study the response of the mutant to these monosaccharides and sucrose. The WT and the mutant seeds were germinated and grown in Gal, Man, Glu, Fm along with Suc at different concentrations (ranging from 0.1% to 1%) and Suc alone containing medium as a control. The following parameters were taken into account during observation: the shoot length, the number and the length of adventitious roots and the germination rate. […] Out of these three sugars tested, Man was selected as an example as its inhibitory effect was similar in seeds and seedlings of WT and mutant as shown in FIGS. 10A and B. The seed germination was severely affected by Man.
(§4) At 1.0% of the Gal, the shoot length decreased by half in the mutant, whereas only by 15% in the WT seedlings. […] Apart from this, the germination rate of the WT seeds dropped to 85% whereas in the mutant it dropped to 30%.
(§5) Germination of WT and mutant seeds in galactose/mannose containing media. WT and mutant seeds were germinated separately on MS medium containing 0.8% agar and 1% sucrose. In addition, D(+)galactose/D(+/−)mannose was added in different concentrations (0.1, 0.2, 0.5, and 1.0%) along with a control (MS with 1% of sucrose). At 14 days after germination, the observations for adventitious root number and length (cm), shoot length (cm) and germination rate (%) were recorded.

WT seeds and seedlings = experiment: Germination and growth of WT seeds in galactose/mannose containing media; type: in vivo, Oryza sativa
Text: as §3, §4, §5

Oslrk15 = experiment: RT-PCR of Oslrks in treated 2 week-old seedlings; type: in vivo, Oryza sativa; settings: treated vs control
Experimental: as §1, §2

Oslrk1 gene [3] = experiment: Northern-blot of Oslrk1 transcript in WT seedlings treated with hormones and SA; type: in vivo, Oryza sativa
Text: Differential Regulation of Oslrk1 Gene Expression by Hormones. Receptor-like kinases were postulated to be involved in signal transduction events as they perceive a signal via a ligand-binding extracellular domain and transmit it through the serine/threonine kinase domain into the cytosol (Shiu and Bleecker, 2001). In order to know possible factors influencing the Oslrk1 gene regulation, we analyzed promoter of the Oslrk1 (1.5 kb) for the presence of cis-acting elements using the program PlantCARE (Lescot et al., 2002). Three TGAGC motifs observed in MeJA inducible genes were found in promoter of the Oslrk1 at the positions −186, −657 and −1190. Apart from these, three GA3 inducible motifs (P-box-CCTTxt) −101, −206 and −740 bp upstream of the Oslrk1 ORF were located. In addition, five salicylic acid inducible motifs (TCA-elementcAGAAa/ga) at the positions of −321, −601, −604, −855 and −1135 were detected. The presence of MeJA, GA and SA responsive cis-elements in the Oslrk1 promoter indicated possible regulatory roles of these factors. The promoter analysis led us to study the effect of different hormones and compounds on the Oslrk1 transcription. The WT seeds were germinated for […] then seedlings were transferred to the medium containing one of the following chemicals: […], MeJA, GA3 or ABA at concentration 100 uM and SA (5 mM) for 24 hours (Materials and Methods). The total RNA isolated from the untreated and treated seedlings were used in Northern-blot hybridization using 3′ UTR of the Oslrk1 gene as a probe. The treatment with GA3 and SA repressed the Oslrk1 gene expression (FIG. 8A) by 2.5 and 3.3 times respectively. […] In order to confirm the level of induction of the Oslrk1 gene by MeJA over time, in another series of experiments, a time course was performed after hormone treatment. Seven day old seedlings were sprayed with 100 uM of MeJA solution and they were harvested in 1, 2, 4, 6, 8, and 12 hours.
RNA Isolation and Northern-blot Analysis. RNA was isolated from different organs of rice plant at different developmental stages (roots of 10-14 days old seedlings and 2 months old plants, 10-14 days old seedlings, young and mature leaves, panicles at the flowering stage and calli) using a RNeasy Plant mini kit (Qiagen,). The RNA (10 ug) was fractionated on a 1.2% denaturating formaldehyde agarose gel and transferred onto a Hybond-N^+ membrane (Amersham). The bolts were hybridized with dogoxigenin (DIG)-labeled probes in DIG Easy Hyb solution (Roche) at 50° C. After hybridization, membranes were washed twice with 2×SSC and 0.1% SDS for 15 min, then twice with 0.5×SSC and 0.1% SDS for 15 min at 68° C. Detection was carried out according to manufacturer using DIG Wash and Block Buffer set and chemiluminescent substrate CDP Star™ (Roche). DIG-labelled probe corresponded to 3′UTR and lectin domain of Oslrk1 was used. For the control of RNA quantity, DIG-probe corresponding to rice Actin1 gene was synthesized using the following primers: […]
The RT-PCRs and Northern blots were repeated at least thrice and similar results were obtained. The quantification of the intensity of the hybridization signals was performed using Quantity ONE 4.5.0 software in Gel doc XR documentation system (Bio-Rad Laboratories, Inc., USA). The level of actual expression was calculated as a ratio of intensity of specific signal (Oslrk1 3′UTR probe) to the intensity of signal of positive control (rice Act1).
Treatment of WT Seedlings with Hormones and Sugars. Two week old WT seedlings were transferred to MS medium containing 100 μM of different hormones, such as Indole 3-Acetic Acid (IAA), Abscisic acid (ABA), Methyl Jasmonate (MeJA), or Gibbrellic Acid (GA3) and 5 mM of Salicylic Acid (SA), and were grown for 24 hours under normal day/light conditions. Total RNA was extracted from root of the seedlings and whole seedlings. […]

Oslrk1 mutant seedlings = experiment: Growth of Oslrk1 mutant seedlings in MeJA or GA3 containing medium; type: in vivo, Oryza sativa
Experimental: (§6) In order to study the effect of phytohormones on the Oslrk1 mutant, seeds were grown in medium containing different concentrations of either MeJA ([…]) (FIG. 9A) or GA3 (0.5, 1, 5 and 10 μm) (data not shown) along with WT as a control The number and length of adventitious roots, number of lateral roots and shoot length were measured. […] In the WT seedlings the number of the lateral roots was increased at 5 uM and decreased by at 10 uM.
(§7) The adventitious root length of WT increased by 50% at 10 uM concentration of GA3, but it was not altered in the mutant (data not shown).
(§8) Plant Growth Conditions. Surface sterilized rice seeds were germinated and grown in cell culture containers (Phytatray II Sigma cell culture, USA) on 0.8% agar MS medium (Murashige and Skoog medium, Sigma., St. Louis Mo., USA) containing 1% of Suc for 2 weeks under 16/8 hours photoperiod. All chemicals used for the various treatments were purchased from Sigma.
(§9) Growth of WT and Mutant Seedlings in MeJA Containing Medium WT and mutant seeds were germinated and grown in MS medium (1% Suc) containing different concentrations of MeJA (1 μM, 5 μM, and 10 μM) for two weeks. No MeJA was added in the control. The number and length (cm) of adventitious roots as well as the number of lateral roots were measured.

adventitious roots = settings: rice, Moons et al., 1997; cited from earlier work
WT seedlings = experiment: Growth of WT seedlings in MeJA or GA3 containing medium; type: in vivo, Oryza sativa
Experimental: as §6, §7, §8, §9

[4] = seedlings sprayed with 100 uM, time course 1-12 hours

SMILES: O=C[C@H](O)[C@@H](O)[C@@H](O)[C@H](O)CO [Gal, galactose]
- Oslrk1 expression in response to sugars (Oslrk1 gene [1]): Repression
- Oslrk5 expression by RT-PCR, Rt (Oslrk5): I
- Oslrk5 expression by RT-PCR, Sh (Oslrk5): I
- Oslrk4 expression by RT-PCR, Sh (Oslrk4): I
- Oslrk11 expression by RT-PCR, Rt (Oslrk11; Rt): I
- Oslrk11 expression by RT-PCR, Sh (Oslrk11; Sh): R
- Oslrk8 expression by RT-PCR, Sh (Oslrk8; Sh): I
- Oslrk2 expression by RT-PCR, Rt (Oslrk2; Rt): I
- Oslrk2 expression by RT-PCR, Sh (Oslrk2; Sh): R
- Oslrk9 expression by RT-PCR, Sh (Oslrk9): I
- Oslrk14 expression by RT-PCR, Sh (Oslrk14): I
- Oslrk10 expression by RT-PCR, Sh (Oslrk10; Sh): I
- length of adventitious roots ([2]; Oslrk1 mutant, 1.0% Gal): severe reduction
- number of the adventitious roots reduced by ([2]; Oslrk1 mutant, 1.0% Gal): 85%
- shoot length decreased by ([2]; Oslrk1 mutant, 1.0% Gal): half
- germination rate ([2]; Oslrk1 mutant, Gal (1.0%)): 30%
- behavior of the mutant compared with the WT upon treatment ([2]; sugar 0.1% to 1% along with Suc): differential response
- length of adventitious roots (WT seeds and seedlings; 1.0% Gal): reduced
- number of the adventitious roots (WT seeds and seedlings; 1.0% Gal): more or less same
- shoot length decreased by (WT seeds and seedlings; 1.0% Gal): 15%
- germination rate (WT seeds and seedlings; Gal (1.0%)): 85%

SMILES: O=C(O)Cc1c[nH]c2ccccc12 [IAA, Indole 3-Acetic Acid]
- Oslrk5 expression by RT-PCR, Rt (Oslrk5): I
- Oslrk4 expression by RT-PCR, Rt (Oslrk4): I
- Oslrk8 expression by RT-PCR, Rt (Oslrk8; Rt): I
- Oslrk15 expression by RT-PCR, Rt (Oslrk15): I
- Oslrk10 expression by RT-PCR, Rt (Oslrk10; Rt): I
- effect on Oslrk1 transcription (Oslrk1 gene [3]; 100 uM, 24 hours, WT seedlings): no significant effect

SMILES: CC/C=C\CC1C(=O)CCC1CC(=O)OC (stereo not shown) [MeJA, Methyl Jasmonate]
- Oslrk5 expression by RT-PCR, Rt (Oslrk5): I
- Oslrk5 expression by RT-PCR, Sh (Oslrk5): R
- Oslrk4 expression by RT-PCR, Rt (Oslrk4): I
- Oslrk4 expression by RT-PCR, Sh (Oslrk4): R
- number of adventitious roots (Oslrk1 mutant seedlings; MeJA 10 uM): opposite to the effect observed at 5 uM
- number of lateral roots (Oslrk1 mutant seedlings; MeJA 1, 5, 10 uM): no significant changes
- shoot length (Oslrk1 mutant seedlings; MeJA 1, 5, 10 uM, two weeks): decreased
- number of adventitious roots (Oslrk1 mutant seedlings; MeJA up to 5 uM): gradually increased
- length of adventitious roots (Oslrk1 mutant seedlings; MeJA up to 10 uM): not reduced significantly
- Oslrk1 transcript, intensity of the hybridization signal increased by (Oslrk1 gene [3]; 100 uM, 24 hours, WT seedlings, compared to the control): 3.2 times
- maximum induction of Oslrk1 expression relative to untreated sample (Oslrk1 gene [3]; [4]): approximately 3 times
- time of maximum Oslrk1 induction (Oslrk1 gene [3]; [4]): 8 h
- concentration at which development of adventitious roots was inhibited (adventitious roots): more than 3 μM
- number of the lateral roots (WT seedlings; MeJA 5 uM): increased
- number of adventitious roots (WT seedlings; MeJA 10 uM): opposite to the effect observed at 5 uM
- number of the lateral roots (WT seedlings; MeJA 10 uM): decreased
- reduction in length of adventitious roots (WT seedlings; MeJA 10 uM): approximately 75%
- shoot length (WT seedlings; MeJA 1, 5, 10 uM, two weeks): decreased
- number of adventitious roots (WT seedlings; MeJA up to 5 uM): gradually increased
